US20250059160A1, “Chemical Activators of Nicotinamide Mononucleotide adenylyltransferase 2 (NMNAT2) and Uses Thereof” (Tsinghua University, priority 2018, published 2025)
“Also recorded” adds a separate entry of the source.

Assays:
[1] = tested on: CIPN mice model; experiment: paclitaxel-induced CIPN mouse model, Von Frey test; assay type: in vivo
Description: The procedure of CIPN mouse model and treatment regimen is shown in the upper panel.
Chemotherapy-induced peripheral neuropathy (CIPN) arises from the peripheral nerve damage by anticancer pharmacotherapy, leading to a progressive, enduring, and debilitating condition featuring pain, numbness, tingling and sensitivity to cold in the hands and feet. CIPN afflicts between 30% and 40% of patients undergoing chemotherapy, but currently no effective treatment for CIPN exists (del Pino BM, 2010). Chemotherapy drugs associated with CIPN include the antimitotic drugs such as paclitaxel and vinblastine, which are widely used for the treatment of a variety of cancer. To evaluate the neuroprotective efficacy of the compounds in vivo, we developed an aggressive CIPN mice model as presented in FIG. 5.
Mice were daily administrated with compound 20, at doses of 6, 2, 0.6 and 0 mg/kg (5 animals per group, i.p.) from one week prior to the initiation of paclitaxel (D-7) to 8th day after the initiation of paclitaxel (D8). After one-week pre-dosing with compound 20, mice were injected intraperitoneally with paclitaxel at a dose of 2 mg/kg on 4 alternate days (Day 0, 2, 4, 6). The Von Frey test was conducted the other day after the last administration of paclitaxel. […] Mice were daily administrated with compound NSC, at doses of 1, 3, and 10 mg/kg (5-6 animals per group, i.p.) from one week prior to the initiation of taxol (paclitaxel) (D-7) to 8th day after the initiation of paclitaxel (D8). After one-week pre-dosing with compound NSC, mice were injected intraperitoneally with paclitaxel at a dose of 2 mg/kg on 4 alternate days (Day 0, 2, 4, 6). The Von Frey test was conducted the other day after the last administration of taxol (paclitaxel).

[2] = molecular target: NMNAT2 (Homo sapiens, UniProt Q9BZQ4); experiment: doubly coupled NMNAT2 enzyme assay (NMNAT2 + ADH, NADH fluorescence); assay type: biochemical
Sequence of NMNAT2 (Q9BZQ4 whole entry, species assumed): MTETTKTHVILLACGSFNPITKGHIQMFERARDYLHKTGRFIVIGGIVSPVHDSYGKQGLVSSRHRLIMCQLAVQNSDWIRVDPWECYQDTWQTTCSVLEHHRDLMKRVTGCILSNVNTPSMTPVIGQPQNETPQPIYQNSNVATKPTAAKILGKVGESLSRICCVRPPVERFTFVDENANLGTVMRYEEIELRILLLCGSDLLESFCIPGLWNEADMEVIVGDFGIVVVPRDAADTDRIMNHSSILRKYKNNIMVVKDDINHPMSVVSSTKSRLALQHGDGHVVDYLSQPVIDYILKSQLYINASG
Protocol: In a doubly coupled enzyme assay, the first enzyme NMNAT2 (it converted NMN to NAD) and the second enzyme ADH (it converted NAD to NADH) as well as compound NSC at a concentration of 3 μM were used, and the conversion of NMN to NADH was monitored by measuring fluorescence intensity of NADH at an excitation of 340 nm and an emission of 445 nm (Y axis) as a function of time (X axis).
A high-throughput screen was performed in search of compounds capable of activating NMNAT2, an important NAD biosynthetic enzyme. Roughly 50,000 synthetic organic chemicals were tested in a doubly coupled NMNAT assay that contains two enzymes, NMNAT2 and alcohol dehydrogenase (ADH). […] The conversion of NMN to NADH was monitored by measuring fluorescence intensity of NADH at an excitation of 340 nm and an emission of 445 nm (Y axis) as a function of time (X axis). Fluorescence at ex340 nm/em445 nm (F340/445) was measured continuously for 30 minutes at room temperature to establish the reaction velocity. […] The reaction rate is expressed as the concentration of NADH (equivalent to NAD) formed per minute. Since the concentration of NADH is reflected by F340/445, the reaction rate is thus the slope of the linear kinetic curve of F340/445 versus time at time t, written as F340 445/min, which is calculated in the equation: reaction rate=ΔF340/445/Δt. […]

[3] = molecular target: NMNAT1 (Homo sapiens, UniProt Q9HAN9); experiment: doubly coupled enzyme assay prepared for NMNAT1; assay type: biochemical; settings: 3 μM compound, FIG. 3, NMNAT isoform comparison
Sequence of NMNAT1 (Q9HAN9 whole entry, species assumed, canonical isoform): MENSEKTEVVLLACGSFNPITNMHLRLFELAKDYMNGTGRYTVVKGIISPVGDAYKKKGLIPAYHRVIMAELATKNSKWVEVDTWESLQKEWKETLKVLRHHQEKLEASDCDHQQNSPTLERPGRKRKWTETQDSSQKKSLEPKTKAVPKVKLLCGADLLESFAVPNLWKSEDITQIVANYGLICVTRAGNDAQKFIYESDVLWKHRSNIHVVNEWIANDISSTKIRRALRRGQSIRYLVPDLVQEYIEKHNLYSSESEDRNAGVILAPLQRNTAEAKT
Protocol: (§1) A doubly coupled enzyme assay was prepared for NMNAT1, NMNAT2 and NMNAT3. NMNAT activation is normalized, where the reaction rate of NMNAT in the presence of 3 μM of compound NSC was compared to that of a DMSO-treated control.
(§2) These compounds might represent direct activators of the NMNAT2 enzyme.

[4] = molecular target: NMNAT3 (Homo sapiens, UniProt Q96T66); experiment: doubly coupled enzyme assay prepared for NMNAT3; assay type: biochemical; settings: 3 μM compound, FIG. 3, NMNAT isoform comparison
Sequence of NMNAT3 (Q96T66 whole entry, species assumed, canonical isoform): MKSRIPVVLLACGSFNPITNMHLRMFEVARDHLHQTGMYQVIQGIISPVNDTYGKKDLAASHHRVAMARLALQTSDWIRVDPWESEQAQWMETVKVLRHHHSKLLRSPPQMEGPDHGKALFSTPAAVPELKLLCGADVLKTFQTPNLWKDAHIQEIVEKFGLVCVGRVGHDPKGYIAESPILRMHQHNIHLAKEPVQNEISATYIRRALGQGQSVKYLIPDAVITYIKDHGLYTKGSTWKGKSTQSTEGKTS
Protocol: as §1, §2

[5] = tested on: alcohol dehydrogenase (ADH); experiment: ADH enzyme assay with NAD as substrate (counter-screen); assay type: biochemical; settings: 5 μM compound, 50 μM NAD
Protocol: In a secondary screen, the compounds with the relative reaction rate higher than 150% are cherry-picked and retested in triplicates in the doubly coupled NMNAT2 assay. […] Briefly, the ADH enzyme reaction was prepared to contain 50 mM Tris-Cl (pH 8.0), 12 mM MgCl2, 1.5% ethanol, 10 mM semicarbizide, 0.2% bovine serum albumin (BSA), and 0.04 units ADH. 40 µl of the mixture was dispensed into 384-well black polypropylene plates, and individual compounds were added to each well at a final concentration of 5 μM. The reaction was initiated by addition of 50 μM NAD followed by gentle mixing in the plate. The conversion of NAD to NADH was monitored by measuring fluorescence intensity of NADH at an excitation of 340 nm and an emission of 445 nm (Y axis) as a function of time (X axis). Fluorescence at ex340 nm/em445 nm was measured continuously for 30 minutes to establish the kinetic reaction curve of F340/445 versus time. The reaction rates were calculated as described in the NMNAT2 assay. The relative ADH enzyme reaction rate in the presence of each compound is normalized by DMSO-treated control.

[6] = tested on: SARM1-expressing cells; experiment: protection from SARM1-mediated toxicity, cell viability by CellTiter-Glo; assay type: cell-based; settings: 0.1, 0.3, 1, 3, 10, and 30 μM, 24 hours, FIG. 4
Protocol: SARM1-expressing cells were treated with compound NSC at 0.1, 0.3, 1, 3, 10, and 30 μM. After 24 hours, the cell images in bright field were taken under the microscope before cell viability was determined by measuring ATP levels using CellTiter-Glo assay kit.
In the first assay, the compounds were added at 1, 3, 10, 30 and 100 μM in the reaction mixture. The reaction rate of NMNAT2 enzyme was calculated as the slope of the F340/445 versus time curve, and was normalized by DMSO-treated control. The dose response curves were plotted to assess the effects of individual compounds on NMNAT2 enzymatic activity. […] After 24 hours, the cell survival was measured by Cell-titer Glo kit, and normalized by DMSO-treated control. […]
Compounds NSC and 1-40 were evaluated in two independent assays: an in vitro enzyme assay measuring activation of NMNAT2 and a cell-based assay measuring the degree of protection from SARM1 expression in cells. […] The conversion of NMN to NADH was monitored by measuring fluorescence intensity of NADH at an excitation of 340 nm and an emission of 445 nm (Y axis) as a function of time (X axis). Fluorescence at ex340 nm/em445 nm (F340/445) was measured continuously for 30 minutes at room temperature to establish the reaction velocity. The reaction rate of NMNAT2 enzyme was expressed as the concentration of NADH (equivalent to NAD) formed per minute. […]

| SMILES | mice paw pressure threshold (Von Frey test) ([1]; 6 mg/kg/day i.p., D-7 to D8, paclitaxel 2 mg/kg on days 0, 2, 4, 6, FIG. 5) | NMNAT2 activation (reaction rate compared to DMSO-treated control) ([2]; 3 μM compound, FIG. 3, NMNAT isoform comparison) | level of activation in the doubly coupled NMNAT2 assay ([2]; high-throughput screen hits, FIG. 2 with compound at 3 μM) | NMNAT1 activation (reaction rate compared to DMSO-treated control) [3] | NMNAT3 activation (reaction rate compared to DMSO-treated control) [4] | activity in the ADH assay (relative ADH enzyme reaction rate) [5] | protection of cultured cells against SARM1-mediated toxicity (cell viability, ATP levels) [6] | mice paw pressure threshold (Von Frey test) ([1]; 3 mg/kg/day i.p., D-7 to D8, paclitaxel 2 mg/kg on days 0, 2, 4, 6, FIG. 6) | mice paw pressure threshold (Von Frey test) ([1]; 10 mg/kg/day i.p., D-7 to D8, paclitaxel 2 mg/kg on days 0, 2, 4, 6, FIG. 6) | mice paw pressure threshold (Von Frey test) ([1]; FIG. 6 legend, dose not stated there) |
| --- | --- | --- | --- | --- | --- | --- | --- | --- | --- | --- |
| C/C(=N\NC(=S)NN)c1ccccn1 [Compound 20, (E)-N′-(1-(pyridin-2-yl)ethylidene)hydrazinecarbothiohydrazide] | significantly increased the mice paw pressure threshold | – | – | – | – | – | – | – | – | – |
| C/C(=N\NC(=S)N1CCC1)c1ccccn1 [Compound NSC, (E)-N′-(1-(pyridin-2-yl)ethylidene)azetidine-1-carbothiohydrazide] | – | activated NMNAT2 strongly; also recorded: activates NMNAT2 | most robust level of activation; also recorded: NMNAT2 activation | NMNAT1 weakly; also recorded: activates NMNAT2 and NMNAT1 | not NMNAT3 | inactive in the ADH assay | protects cultured cells against SARM1-mediated toxicity | significantly increased the mice paw pressure threshold | significantly increased the mice paw pressure threshold | significantly increased the mice paw pressure threshold |
